Laboratory results: ChEMBL document CHEMBL5465560, “Selectivity Literature for EUbOPEN Chemogenomic Library” (2024)

How the values were obtained:
[1] = biological target: Angiopoietin-1 receptor (Homo sapiens) (UniProt Q02763); assay: Selectivity interaction (KinomeScan (DiscoverX)) EUB0001049a TEK; details: at 1 µM
[2] = tested on: Phosphatidylinositol 4,5-bisphosphate 3-kinase catalytic subunit alpha isoform (Homo sapiens), P42336 [E542K]; assay: (§1) Selectivity interaction (KinomeScan (DiscoverX)) EUB0000666a PIK3CA; details: at 10 µM
[3] = tested on: Phosphatidylinositol 4,5-bisphosphate 3-kinase catalytic subunit alpha isoform (Homo sapiens), P42336 [H1047L]; assay: as §1; details: at 10 µM
[4] = tested on: Phosphatidylinositol 4,5-bisphosphate 3-kinase catalytic subunit alpha isoform (Homo sapiens), P42336 [I800L]; assay: as §1; details: at 10 µM
[5] = tested on: Phosphatidylinositol 4,5-bisphosphate 3-kinase catalytic subunit alpha isoform (Homo sapiens), P42336 [E545A]; assay: as §1; details: at 10 µM
[6] = biological target: Phosphatidylinositol 4,5-bisphosphate 3-kinase catalytic subunit alpha isoform (Homo sapiens) (UniProt P42336); assay: as §1; details: at 10 µM
[7] = tested on: Phosphatidylinositol 4,5-bisphosphate 3-kinase catalytic subunit alpha isoform (Homo sapiens), P42336 [C420R]; assay: as §1; details: at 10 µM
[8] = tested on: Phosphatidylinositol 4,5-bisphosphate 3-kinase catalytic subunit alpha isoform (Homo sapiens), P42336 [Q546K]; assay: as §1; details: at 10 µM
[9] = tested on: Phosphatidylinositol 4,5-bisphosphate 3-kinase catalytic subunit alpha isoform (Homo sapiens), P42336 [E545K]; assay: as §1; details: at 10 µM
[10] = tested on: Phosphatidylinositol 4,5-bisphosphate 3-kinase catalytic subunit alpha isoform (Homo sapiens), P42336 [M1043I]; assay: as §1; details: at 10 µM
[11] = tested on: Phosphatidylinositol 4,5-bisphosphate 3-kinase catalytic subunit alpha isoform (Homo sapiens), P42336 [H1047Y]; assay: as §1; details: at 10 µM
[12] = biological target: Tyrosine-protein kinase receptor UFO (Homo sapiens, UniProt P30530); assay: Selectivity interaction (Kinase panel (33PanQinase(R) Activity Assay)) EUB0000877a AXL
[13] = biological target: Tyrosine-protein kinase JAK1 (Homo sapiens, UniProt P23458); assay: Selectivity interaction (Kinase panel (33PanQinase(R) Activity Assay)) EUB0000877a JAK1
[14] = biological target: T1, Serine/threonine-protein kinase D2 (Homo sapiens) (UniProt Q9BZL6); assay: Selectivity interaction (Kinase panel (Invitrogen)) EUB0000639a PRKD2; details: at 200 nM
T1 sequence (whole entry): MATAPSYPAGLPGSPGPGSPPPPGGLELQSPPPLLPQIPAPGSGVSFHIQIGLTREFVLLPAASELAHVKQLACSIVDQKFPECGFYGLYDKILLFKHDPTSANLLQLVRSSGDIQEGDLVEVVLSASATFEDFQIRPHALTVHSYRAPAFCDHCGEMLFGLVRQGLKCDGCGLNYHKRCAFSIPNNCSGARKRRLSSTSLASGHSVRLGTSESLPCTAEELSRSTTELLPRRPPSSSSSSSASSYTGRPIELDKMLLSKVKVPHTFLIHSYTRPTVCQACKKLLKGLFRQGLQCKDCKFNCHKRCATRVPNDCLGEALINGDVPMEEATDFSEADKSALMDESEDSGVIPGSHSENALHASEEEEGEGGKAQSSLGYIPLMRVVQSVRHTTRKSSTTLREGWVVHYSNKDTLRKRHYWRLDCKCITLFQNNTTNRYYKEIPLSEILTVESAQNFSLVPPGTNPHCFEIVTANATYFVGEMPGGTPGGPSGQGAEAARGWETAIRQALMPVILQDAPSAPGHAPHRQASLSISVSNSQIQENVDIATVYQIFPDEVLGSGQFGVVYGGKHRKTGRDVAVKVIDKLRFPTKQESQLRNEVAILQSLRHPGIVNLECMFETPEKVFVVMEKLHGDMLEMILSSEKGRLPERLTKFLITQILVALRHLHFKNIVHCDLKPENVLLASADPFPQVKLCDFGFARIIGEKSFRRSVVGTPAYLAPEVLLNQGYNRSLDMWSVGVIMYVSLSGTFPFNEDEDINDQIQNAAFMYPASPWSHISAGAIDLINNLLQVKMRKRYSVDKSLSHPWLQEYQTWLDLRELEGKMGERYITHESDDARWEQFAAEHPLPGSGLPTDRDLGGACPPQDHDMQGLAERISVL

[15] = biological target: Serine/threonine-protein kinase SIK1 (Homo sapiens) (UniProt P57059); assay: Selectivity interaction (KinomeScan (DiscoverX)) EUB0000595a SIK1; details: at 10 µM
[16] = biological target: Serine/threonine-protein kinase VRK2 (Homo sapiens) (UniProt Q86Y07); assay: Selectivity interaction (Ambit KINOMEscan and KiNATiv profiling in Jurkat cells) EUB0000090b VRK2; type: cell-based; details: at 1 µM
[17] = biological target: Serine/threonine-protein kinase PAK 1 (Homo sapiens) (UniProt Q13153); details: at 10 µM
[18] = biological target: Tyrosine-protein kinase ABL1 (Homo sapiens, UniProt P00519); assay: Selectivity interaction (Kinase panel (Enzyme activity assay)) EUB0000612a ABL1
[19] = biological target: Myosin light chain kinase, smooth muscle (Homo sapiens, UniProt Q15746); assay: Selectivity interaction (ActivX KiNativ screen (ex vivo kinase selectivity in human PBMCs)) EUB0001619a MYLK; type: cell-based; details: PBMC, at 1 µM
[20] = biological target: T2, Activin receptor type-1 (Homo sapiens) (UniProt Q04771); assay: Selectivity interaction (KinomeScan (DiscoverX)) EUB0000655a ACVR1; details: at 10 µM
T2 sequence (whole entry): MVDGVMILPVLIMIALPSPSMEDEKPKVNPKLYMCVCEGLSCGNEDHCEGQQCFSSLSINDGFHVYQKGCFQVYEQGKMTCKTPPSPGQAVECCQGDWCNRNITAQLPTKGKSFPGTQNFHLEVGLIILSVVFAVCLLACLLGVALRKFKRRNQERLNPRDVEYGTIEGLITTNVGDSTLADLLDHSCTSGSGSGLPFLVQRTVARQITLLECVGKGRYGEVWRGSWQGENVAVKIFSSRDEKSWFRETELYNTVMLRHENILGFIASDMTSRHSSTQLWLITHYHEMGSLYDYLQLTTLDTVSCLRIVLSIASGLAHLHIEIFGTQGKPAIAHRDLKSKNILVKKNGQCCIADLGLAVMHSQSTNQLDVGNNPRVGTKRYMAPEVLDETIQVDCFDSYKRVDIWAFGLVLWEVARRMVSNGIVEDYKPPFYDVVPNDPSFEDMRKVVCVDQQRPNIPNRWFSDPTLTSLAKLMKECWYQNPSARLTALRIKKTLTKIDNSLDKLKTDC

[21] = biological target: Serine/threonine-protein kinase PLK3 (Homo sapiens, UniProt Q9H4B4); assay: Selectivity interaction (KinomeScan (DiscoverX)) EUB0000607a PLK3; details: at 10 µM
[22] = biological target: Histone-lysine N-methyltransferase, H3 lysine-36 specific (Homo sapiens) (UniProt Q96L73); assay: Selectivity interaction (Methyltransferase screen (radiometric assays, panel of 8 PRMTs, 21 protein lysine methyltransferases, 3 DNA methyltransferases, and one RNA methyltransferase)) EUB0000271b NSD1; details: at 10 µM
[23] = biological target: Serine/threonine-protein kinase 25 (Homo sapiens) (UniProt O00506); assay: Selectivity interaction (ProQinase) EUB0000171b STK25
Sequence of Serine/threonine-protein kinase 25 (Homo sapiens) (O00506 whole entry, looked up): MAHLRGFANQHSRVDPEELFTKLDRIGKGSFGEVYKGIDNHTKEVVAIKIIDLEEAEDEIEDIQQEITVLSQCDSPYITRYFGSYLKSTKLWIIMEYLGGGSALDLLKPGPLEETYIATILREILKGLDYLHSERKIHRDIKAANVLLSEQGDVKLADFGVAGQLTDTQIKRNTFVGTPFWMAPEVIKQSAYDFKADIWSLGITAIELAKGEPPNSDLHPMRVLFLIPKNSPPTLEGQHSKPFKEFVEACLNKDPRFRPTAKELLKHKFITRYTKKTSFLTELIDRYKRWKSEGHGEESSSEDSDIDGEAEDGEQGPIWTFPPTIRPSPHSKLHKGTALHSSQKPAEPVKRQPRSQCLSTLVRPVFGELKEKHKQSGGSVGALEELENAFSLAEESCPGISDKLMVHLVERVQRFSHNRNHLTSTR

Sequence of Serine/threonine-protein kinase PLK3 (Q9H4B4 whole entry, looked up): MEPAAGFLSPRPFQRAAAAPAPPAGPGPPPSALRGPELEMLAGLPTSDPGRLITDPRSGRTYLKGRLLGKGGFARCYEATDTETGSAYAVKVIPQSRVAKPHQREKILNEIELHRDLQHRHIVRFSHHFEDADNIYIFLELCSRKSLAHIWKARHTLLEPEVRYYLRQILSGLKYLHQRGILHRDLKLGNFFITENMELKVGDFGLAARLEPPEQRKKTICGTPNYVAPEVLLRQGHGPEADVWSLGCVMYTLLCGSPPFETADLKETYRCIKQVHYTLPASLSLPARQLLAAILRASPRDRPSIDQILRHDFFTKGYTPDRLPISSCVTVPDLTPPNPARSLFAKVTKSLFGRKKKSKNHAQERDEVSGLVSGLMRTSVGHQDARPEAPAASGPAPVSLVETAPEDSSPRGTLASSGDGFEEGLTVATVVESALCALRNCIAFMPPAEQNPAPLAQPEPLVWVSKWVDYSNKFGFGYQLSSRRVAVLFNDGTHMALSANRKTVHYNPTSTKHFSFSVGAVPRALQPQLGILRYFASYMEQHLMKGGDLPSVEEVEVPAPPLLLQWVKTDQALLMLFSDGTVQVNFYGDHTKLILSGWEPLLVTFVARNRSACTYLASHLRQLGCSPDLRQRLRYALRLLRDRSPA
Sequence of Serine/threonine-protein kinase SIK1 (Homo sapiens) (P57059 whole entry): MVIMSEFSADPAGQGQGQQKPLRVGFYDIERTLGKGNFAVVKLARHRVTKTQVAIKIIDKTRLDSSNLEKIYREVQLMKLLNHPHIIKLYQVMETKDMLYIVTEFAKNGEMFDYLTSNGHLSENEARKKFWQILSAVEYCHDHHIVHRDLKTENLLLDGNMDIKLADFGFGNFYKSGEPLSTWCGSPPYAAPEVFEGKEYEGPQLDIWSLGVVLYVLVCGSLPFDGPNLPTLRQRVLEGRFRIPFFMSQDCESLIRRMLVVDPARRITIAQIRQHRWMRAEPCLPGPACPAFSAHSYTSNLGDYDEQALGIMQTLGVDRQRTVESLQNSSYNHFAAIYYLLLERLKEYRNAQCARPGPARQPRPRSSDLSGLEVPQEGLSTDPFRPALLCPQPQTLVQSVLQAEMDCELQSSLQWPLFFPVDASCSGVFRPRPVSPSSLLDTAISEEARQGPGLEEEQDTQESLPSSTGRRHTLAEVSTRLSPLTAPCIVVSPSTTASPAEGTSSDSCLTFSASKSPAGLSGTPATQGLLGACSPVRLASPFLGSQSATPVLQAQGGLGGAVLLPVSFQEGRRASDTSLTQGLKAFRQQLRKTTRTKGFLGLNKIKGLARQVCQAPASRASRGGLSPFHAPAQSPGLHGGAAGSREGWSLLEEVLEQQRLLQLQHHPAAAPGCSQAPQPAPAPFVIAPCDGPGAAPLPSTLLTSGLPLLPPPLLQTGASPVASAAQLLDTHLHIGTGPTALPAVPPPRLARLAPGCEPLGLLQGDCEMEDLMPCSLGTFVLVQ
Sequence of Phosphatidylinositol 4,5-bisphosphate 3-kinase catalytic subunit alpha isoform (Homo sapiens), P42336 [M1043I] (P42336 whole entry M1043I, canonical isoform): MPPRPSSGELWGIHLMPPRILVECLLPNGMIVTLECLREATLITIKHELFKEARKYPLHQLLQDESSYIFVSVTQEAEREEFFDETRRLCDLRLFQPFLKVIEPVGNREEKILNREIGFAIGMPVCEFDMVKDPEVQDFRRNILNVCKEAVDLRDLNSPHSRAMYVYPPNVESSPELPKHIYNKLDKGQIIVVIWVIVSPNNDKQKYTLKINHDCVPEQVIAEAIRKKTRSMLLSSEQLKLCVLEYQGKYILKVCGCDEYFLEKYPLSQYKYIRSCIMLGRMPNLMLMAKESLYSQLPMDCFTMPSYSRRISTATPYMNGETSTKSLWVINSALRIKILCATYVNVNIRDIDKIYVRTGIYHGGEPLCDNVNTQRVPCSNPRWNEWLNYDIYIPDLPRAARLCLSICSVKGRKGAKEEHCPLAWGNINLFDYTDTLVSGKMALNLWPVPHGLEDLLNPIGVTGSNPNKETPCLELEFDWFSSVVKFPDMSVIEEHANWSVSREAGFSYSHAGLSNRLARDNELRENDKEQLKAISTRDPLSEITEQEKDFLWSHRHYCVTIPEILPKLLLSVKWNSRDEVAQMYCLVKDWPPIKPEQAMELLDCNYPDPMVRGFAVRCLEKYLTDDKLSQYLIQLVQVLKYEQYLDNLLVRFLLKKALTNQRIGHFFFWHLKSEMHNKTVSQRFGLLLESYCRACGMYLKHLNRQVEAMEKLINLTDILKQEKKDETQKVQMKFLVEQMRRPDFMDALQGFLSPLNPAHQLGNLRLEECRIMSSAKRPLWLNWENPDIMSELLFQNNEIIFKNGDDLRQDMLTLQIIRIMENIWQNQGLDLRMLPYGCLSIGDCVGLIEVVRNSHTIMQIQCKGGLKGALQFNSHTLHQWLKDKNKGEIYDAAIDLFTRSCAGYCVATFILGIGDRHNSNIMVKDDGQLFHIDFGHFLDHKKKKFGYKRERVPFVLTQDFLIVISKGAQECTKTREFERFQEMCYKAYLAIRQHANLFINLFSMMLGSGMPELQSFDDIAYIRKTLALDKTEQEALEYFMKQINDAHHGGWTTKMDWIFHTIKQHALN
Sequence of Phosphatidylinositol 4,5-bisphosphate 3-kinase catalytic subunit alpha isoform (Homo sapiens), P42336 [E545A] (P42336 whole entry E545A, canonical isoform): as the sequence (P42336 whole entry M1043I, canonical isoform) above, with E545A, I1043M counted along it
Sequence of Phosphatidylinositol 4,5-bisphosphate 3-kinase catalytic subunit alpha isoform (Homo sapiens), P42336 [Q546K] (P42336 whole entry Q546K, canonical isoform): as the sequence (P42336 whole entry M1043I, canonical isoform) above, with Q546K, I1043M counted along it

`COc1cc(Nc2nc(C)cc(-c3cnn4nc(OC)ccc34)n2)cc(C(F)(F)F)c1` showed a % of control [1] of 100%.
With `O=C(NOC[C@H](O)CO)c1ccc(F)c(F)c1Nc1ccc(I)cc1F` the % of control [2] was 57%, the % of control [3] was 45% and the % of control [4] was 33%. The % of control [5] was 45%, the % of control [6] was 56% and the % of control [7] was 50%. The % of control [8] was 41%, the % of control [9] was 53% and the % of control [10] was 42%. The % of control [11] was 57%.
`CCC(=O)N1CC[C@H](Nc2ncnc3c2CN(c2cnc(OC)c(C(F)(F)F)c2)CC3)C1` [LENIOLISIB] was tested, and the IC50 [12] was over 10 µM and the IC50 [13] was over 10 µM.
With `CC[C@@H]1[C@H](F)C(=O)N[C@@H]1COc1nccc2cc(C(N)=O)c(OC)cc12` [ZIMLOVISERTIB] the % of inhibition [14] was 5.6%.
With `COCC(=O)NC/C=C/c1ccc2ncnc(Nc3ccc(Oc4ccc(C)nc4)c(C)c3)c2c1` [CP-724714] the % of control [15] was 100%.
Molecule `CN(C)C/C=C/C(=O)Nc1ccc(C(=O)N2CCCC(Nc3ncc(Cl)c(-c4c[nH]c5ccccc45)n3)C2)cc1` (centres undefined) has a % of control [16] of 97%.
With `Cc1cc([C@@H](C)Nc2ccccc2C(=O)O)c2nc(N3CCOCC3)cc(=O)n2c1` [AZD-6482] the % of control [17] was 100%.
Molecule `CCc1cccc(CC)c1NC(=O)c1nn(C)c2c1CCc1cnc(Nc3ccc(C(=O)NC4CCN(C)CC4)cc3OC(F)(F)F)nc1-2` has an IC50 [18] of over 10 µM.
`N#Cc1cccc(-c2c[nH]c3ncnc(N4CCOCC4)c23)c1` gave a % of inhibition [19] of 13%.
`CN(C)CCOc1ccc(-c2nc(-c3ccncc3)c(-c3ccc4c(c3)CC/C4=N\O)[nH]2)cc1` was tested, and the % of control [20] was 51%.
For `CNC(=O)Nc1ccc(-c2nc(N3CC4CCC(C3)O4)c3cnn(C4CCC5(CC4)OCCO5)c3n2)cc1`, the % of control [21] was 100%.
For `Cc1cc(C)cc([C@@H]2c3cc(C)ccc3NC(=O)CN2C(=O)c2ccc(Br)s2)c1`, the % of activity [22] was 105%.
`C=CC(=O)Nc1cccc(C(=O)Nc2ccc(Nc3cc(-c4[nH]c(SC)nc4C)ccn3)cc2)c1` gave a % of control ([23]; at 1 µM) of 88% and a % of control ([23]; at 5 µM) of 95%.
